Type in all cases: cell-based
The test system of experiment [1] is FGF-1-induced differentiation of human subcutaneous preadipocytes. As to the kind of experiment: PLC inhibition of FGF-1-induced differentiation (G3PDH activity). The conditions noted are these: inhibitor present during replication phase, differentiation phase or both, SFM including rosiglitazone. As for the experimental part: Human subcutaneous preadipocytes were isolated and subcultured in SCM in the presence and absence of FGF-1 with and without the PLC inhibitor U-73122 (Calbiochem). Cells were then allowed to reach confluence and differentiated using the standard chemically-modified SFM including rosiglitazone in the presence and absence of FGF1 with and without U-73122. Differentiation was assessed by G3PDH activity.

Experiment [2] relates to subcutaneous human preadipocytes gene expression. As to the kind of experiment: Microarray analysis of human preadipocyte gene expression (Affymetrix). The conditions noted are these: confluent preadipocytes in SCM+FGF1 vs SCM; change of at least 50% (CV<5%). As for the experimental part:
Total RNA was isolated from confluent subcutaneous human preadipocytes isolated and grown in either SCM (control) or SCM+FGF1. cRNA was prepared and hybridized to chips and subsequently analyzed using the Affymetrix® system. Each treatment was represented by duplicate samples and two independent experiments were performed. Gene expression was considered to be influenced by FGF-1 if expression was consistently (CV<5%) increased or reduced by at least 50%.

Experiment [3] concerns PLCγ2. As to the kind of experiment: PLCγ expression in human preadipocytes (indirect immunofluorescence, Western blot). The note with it: grown to confluence in SCM + FGF-1 vs SCM alone; immunofluorescence and Western blot. As for the experimental part: Expression of phospholipase Cγ2 (PLCγ2) protein is analyzed using Western blotting with immunofluorescent labeling procedures using a monoclonal anti-PLCγ2 antibody (Santa Cruz sc-5283).
Human preadipocytes were cultured in SCM+/−FGF-1 in 24-well plates. PLCγ expression was examined by indirect immuno-fluorescence. Non-immune primary and secondary antibody-only controls gave no staining.
(A western blot detects proteins with antibodies after separation by electrophoresis.)

The test system of experiment [4] is human preadipocytes (omental and subcutaneous). As to the kind of experiment: Preadipocyte differentiation assessed by G3PDH activity. The conditions noted are these: for adipogenic effect of FGF present during replication and/or differentiation (combination treatments): SCM +/- FGF during replication, SFM+rosiglitazone +/- FGF during differentiation, G3PDH activity; for preadipocyte differentiation / adipogenic effect (summary statements): human preadipocytes cultured with the growth factor; for differentiation of human preadipocytes after exposure to growth factor or MVEC-conditioned medium during subculture: subcultured up to 2 months with growth factor or EC-DMEM, differentiated in serum-free medium including 0.10M Rosiglitazone, G3PDH assay at day 21. As for the experimental part:
Activity is assessed as previously described (Adams et al. J Clin Invest 100: 3149-53 1998) (Hutley et al in Primary Mesenchymal Cells 1st ed. Kluwer Academic 5: 173-87 2001).
For differentiation experiments, preadipocytes were isolated and subcultured in endothelial cell-conditioned medium (EC-DMEM) or in the presence of growth factor for up to 2 months and then allowed to reach confluence in 6-well plates. Cells were then differentiated in serum-free, chemically modified differentiation medium including 0.10M Rosiglitazone. Differentiation was assessed at day 21 using a standard G3PDH assay.
Human omental and subcutaneous preadipocytes were isolated and subcultured in SCM in the presence and absence of FGF-1 or FGF-2. Upon reaching confluence, the cells were differentiated in standard chemically modified SFM+rosiglitazone in the presence and absence of FGF-1 or FGF-2. Differentiation was assessed by G3PDH activity. […] Presence throughout both processes was additive.

For experiment [5], the system named is human preadipocytes (subcutaneous and omental). In words: Preadipocyte proliferation assay (formazan/MTS colorimetric assay). The note with it: for proliferation of human preadipocytes in response to growth factor: SCM + growth factors at 1 ng/mL for 48 hrs, relative to SCM control, MTS assay. Here is the method:
Subcutaneous and omental preadipocytes and human skin fibroblasts are plated separately at about 1×10^3 cells/well (subconfluent) in 96-well plates in DMEM/Ham's F12 1:1 plus 10% FCS (PA growth medium) and allowed to adhere at 37° C., 5% CO2 for 16-20 hrs. The medium is then changed to EC growth medium which is conditioned (see above) by exposure to either confluent subcutaneous or omental MVEC, human skin fibroblasts (HSF), or wells containing no cells (blank control) (each treatment is done in quadruplicate). In separate experiments subcutaneous and omental PAs are plated as above and subsequently treated with either S MVEC, O MVEC, human dermal EC(CADMEC) conditioned media, fresh EC growth medium, or blank control. After 48 hrs, preadipocyte cell number is assessed using a formazan colorimetric assay (Promega). The water soluble tetrazolium salt 3-(4,5-dimethylthiazol-2-yl)-5-(3-carboxymethoxyphenyl)-2-(4-sulfophenyl)-2H-tetrazolium (MTS) is added to each well at a concentration of 200 μg/mL. After incubation at 37° C. for 4 hrs, absorbance at 490 nm is measured using a Bio-Rad 3550 microplate reader. The validity of this assay is tested in two ways; 1) preadipocytes were plated at 250; 500; 1000; 2000; 4000 cells per well (in quadruplicate) and absorbance is measured at 490 nm; 2) after measurement at A490 nm the cells are subsequently stained with propidium iodide and direct cell counts carried out using fluorescence microscopy.
Preadipocytes were isolated and plated in 96-well plates at 500 cells/well (sub-confluent) in serum containing medium for 12-18 hrs to allow adherence. Cells were then incubated in SCM+growth factors at 1 ng/mL for 48 hrs and a MTS proliferation assay (Promega) was performed.

Experiment [6] deals with human omental and subcutaneous preadipocytes. As to the kind of experiment: Differentiation of human preadipocytes in serum-containing medium (cytoplasmic lipid accumulation). The note with it: subcultured in SCM+FGF-1, differentiated in SCM plus insulin and (days 1-3) dexamethasone and rosiglitazone; vs SCM alone. The text has this: A standard requirement of human preadipocyte differentiation in vitro is the obligatory withdrawal of serum. This contrasts with the murine adipocyte cell lines (e.g., 3T3-L1) that have high differentiation potential in SCM. It is assumed that the culture system developed for the human cells either induces down-regulation of factors necessary for differentiation, or promotes the expression of anti-differentiative factors (or both). In these experiments human omental and subcutaneous preadipocytes were isolated and subcultured in the presence of FGF-1. Cells were then differentiated in SCM plus insulin and (days 1-3) dexamethasone and rosiglitazone.

Entries after “also recorded” stand apart in the source; their conditions may differ.

For the compound `COc1ccc2c(c1)CC[C@@H]1[C@@H]2CC[C@]2(C)[C@@H](NCCCCCCN3C(=O)C=CC3=O)CC[C@@H]12` [U-73122], the “FGF-1-induced differentiation in the presence of PLC inhibitor” value in experiment [1] is recorded as “significantly impaired”.

Turning to “FGF-1: acidic fibroblast growth factor (aFGF), also known as FGF-1”, in experiment [2], the C/EBPα gene expression entry is listed as “upregulation”, the FGFR-1 gene expression entry is recorded as “Up-regulation”, the FGFR-2 gene expression entry is reported as “Up-regulation” and the FGFR-3 gene expression result is reported as “down-regulation”. For the same compound, in experiment [2], the PLCγ2 gene expression entry is listed as “Increased expression” and the PPARγ gene expression result is recorded as “upregulation”. For the same compound, the “PLCγ2 protein expression in human preadipocytes” value in experiment [3] is recorded as “increased”. Moreover, the “differentiation potential of preadipocytes grown with purified FGF-1” value in experiment [4] (FGF-1 present from the time of isolation, compared with absence of FGF-1 or other MVEC-derived factors, data not shown) is “similar, but not additive, increase in differentiation potential”. In addition, in experiment [4], the “adipogenic effect of FGF present during replication and/or differentiation (combination treatments)” value was “adipogenic if present either during replication or during differentiation; also recorded: greater adipogenic effect than FGF-2”, the “preadipocyte differentiation / adipogenic effect (summary statements)” value was “significant positive effect on the differentiation; also recorded: dramatically increases potential for subsequent differentiation” and the “differentiation of human preadipocytes after exposure to growth factor or MVEC-conditioned medium during subculture” value is on record as “more pronounced effect than FGF-2; also recorded: marked increase in differentiation”. In addition, the “proliferation of human preadipocytes in response to growth factor” value in experiment [5] is “marked increase in proliferation”. Also, in experiment [5] (human preadipocytes cultured with the growth factor), the “preadipocyte growth and replication (summary statements)” value was “markedly promoted their growth and replication; also recorded: promotes human preadipocyte replication”. Moreover, the “differentiation in the presence of serum (cytoplasmic lipid accumulation)” value in experiment [6] is given as “significant differentiation”.

Turning to FGF-2: basic FGF (also known as FGF-2), in experiment [4], the “adipogenic effect of FGF present during replication and/or differentiation (combination treatments)” value was “adipogenic if present either during replication or during differentiation”, the “preadipocyte differentiation / adipogenic effect (summary statements)” value was “pro-adipogenic effect” and the “differentiation of human preadipocytes after exposure to growth factor or MVEC-conditioned medium during subculture” value is “greater that the effect seen with IGF-1; also recorded: marked increase in differentiation”. For the same compound, the “proliferation of human preadipocytes in response to growth factor” value in experiment [5] is given as “marked increase in proliferation”.

(Values after patent US20140221455A1, “DIFFERENTIATION MODULATING AGENTS AND USES THEREFOR” (Verva Pharmaceuticals, Inc., priority 2002, published 2014).)
